Assay results as given in patent publication US20180092920A1, “METHOD FOR TREATING TAU PROTEIN-MEDIATED DEGENERATIVE NEURONAL DISEASE” (SEOUL NATIONAL UNIVERSITY R&DB FOUNDATION, priority 2012, published 2018).

Columns and labels:
HT22 cells = conditions: 25 iM roscovitine, 1 μM U0126, 24 hours
Description: Examined was a cell death level of neuronal cells containing a lot of aggregated and hyperphosphorylated tau due to ALK. HT22 cells were cotransfected with pALK.Fc or pALK.Fc KD construct and pGFP or pGFP-tau construct, and cultured for 24 to 96 hours. Cell death was measured by staining cells with ethidium homodimer (EtHD) and then counting GFP-positive cells indicating condensed and fragmented nuclei.
To examine downstream kinase of ALK-mediated tau neurotoxicity, the present inventor used a kinase inhibitor. HT22 cells were cotransfected with pALK.Fc and pGFP-tau constructs, and then treated with mock (Mock), 25 iM roscovitine (Ros), 1 μM U0126 (U0126), or 10 mM LiCl for 24 hours. Thereafter, cell death was measured. For negative control, used was mock group in which none of a material was treated.

[1] = system: ALK-mediated tau phosphorylation; conditions: for ALK-mediated tau phosphorylation: HT22 cells, pGFP-tau + pALK.Fc, 24 hours, dependent on treating amount
Description: In addition, examined was influence of a tau kinase specific inhibitor on ALK-induced tau phosphorylation. […] Thereafter, western bolt was performed using the cell extract. The used antibodies are as follow: PHF-1 (p-Ser396/404; Davies), CP13 (p-S202; Davies), MC-1 (conformational change; Davies), P35/25 (Cell signaling, #2680), TG5 (220-240; generously provided by Dr. Peter Davies, Albert Einstein College of Medicine, NY), -actin (Sigma, A2668), ERK (Cell signaling, #9102), p-ERK (Cell signaling, #9101), GSK3β (BD Biosciences, 610201), and p-GSK3β (p-Ser9; Cell signaling, #9323).

HT22/Tau #1 cells = assay: Cell death of HT22/Tau #1 cells transfected with ALK.Fc and treated with ALK inhibitor (fluorescence microscopy, cell morphology); type: cell-based, mouse; conditions: 20 nM, 24 hours; decreased from 42% without inhibitor
Description: Then, cell death was determined through a fluorescence microscopy based on cell morphology. Thereafter, cells were extracted and phosphorylation of tau, ERK, CDK5 and ALK was measured through western blot using respective antibodies. The error bar of the graph indicates mean±S.D. (n=4).

[2] = system: tau aggregation caused by ALK in HT22 cells; assay: Tau aggregation in HT22 cells cotransfected with pmALK and pGFP-tau, counted by fluorescence microscopy; type: cell-based, mouse; conditions: pmALK + pGFP-tau, emodin treatment
Description: To examine whether mouse ALK increases aggregation and phosphorylation of tau, a pGFP-tau-based functional screening method of which availability was validated in the Experiment Example 1 was used. […] The transfection was performed while amounts of cotransfected pcDNA, pGSK3β CA, and pmALK constructs were increased to 100, 200, and 400 ng. After 24 hours of transfection, aggregation of tau was examined as the number of GFP-positive cells appeared to be aggregated by using a fluorescence microscopy. After then, the cells were extracted to examine phosphorylation of tau by analyzing PHF-1 protein expression with western blot. Subsequently, the present inventor examined aggregation and phosphorylation of tau caused by coexpression of mouse tau and mouse ALK as observed in Experimental Example 1-1 through treatment of an inhibitor of ERK activation and PHF aggregation. Specifically, HT22 cells were cotransfected with pmALK and pGFP-tau constructs, and condensation of cells depending whether emodin was treated or not was counted, wherein emodin is an inhibitor of ERK activation and PHF aggregation. Then, the cells were extracted to examine a phosphorylation level of tau protein by using PHF-1 antibody and Tau-1 antibody.

[3] = system: tau protein phosphorylation; assay: Western blot of tau phosphorylation (PHF-1, Tau-1 antibodies) in HT22 cells cotransfected with pmALK and pGFP-tau; type: cell-based, mouse; conditions: pmALK + pGFP-tau, emodin treatment
Description: Subsequently, the present inventor examined aggregation and phosphorylation of tau caused by coexpression of mouse tau and mouse ALK as observed in Experimental Example 1-1 through treatment of an inhibitor of ERK activation and PHF aggregation. Specifically, HT22 cells were cotransfected with pmALK and pGFP-tau constructs, and condensation of cells depending whether emodin was treated or not was counted, wherein emodin is an inhibitor of ERK activation and PHF aggregation. Then, the cells were extracted to examine a phosphorylation level of tau protein by using PHF-1 antibody and Tau-1 antibody.

[4] = system: tau aggregation caused by ALK in HT22 cells; conditions: emodin, inhibitor of PHF aggregation; given with literature references; cited from earlier work
CDK5 = molecular target: T1, CDK5 (Mus musculus, UniProt P49615); assay: ALK/Tau cell death in HT22 cells with CDK5 shRNA (LIVE/DEAD Viability/Cytotoxicity kit); type: cell-based; conditions: pGFP-tau + pALK.Fc + shRNA, 48 hours after transfection
T1 construct: endogenous in cells; host or cells: HT22 cells cotransfected with pGFP-tau, pALK.Fc and pCDK5 shRNA #1 or #2
T1 sequence (P49615 whole entry): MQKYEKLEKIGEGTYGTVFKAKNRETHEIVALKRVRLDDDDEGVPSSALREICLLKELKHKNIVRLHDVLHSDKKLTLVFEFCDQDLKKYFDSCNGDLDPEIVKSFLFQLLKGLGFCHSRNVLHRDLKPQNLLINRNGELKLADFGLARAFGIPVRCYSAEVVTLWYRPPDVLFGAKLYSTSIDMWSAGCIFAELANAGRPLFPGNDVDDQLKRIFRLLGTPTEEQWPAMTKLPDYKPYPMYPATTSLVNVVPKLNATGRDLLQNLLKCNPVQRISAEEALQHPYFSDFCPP
Description: Moreover, the present inventor observed neurotoxicity of ALK/Tau by using CDK5 shRNA. HT22 cells cotransfected with pGFP-tau and pALK.Fc constructs together with either pCDK5 shRNA #1 or #2. After 48 hours of the transfection, cell death was measured by using LIVE/DEAD Viability/Cytotoxicity kit (Molecular Probes). As the same as above experimental results, it was observed that cell death induced by ALK/Tau was reduced when endogenous CDK5 expression was inhibited using shRNA (FIG. 8D). The used pCDK5 shRNA #1 was characterized by having a polynucleotide having the nucleotide sequence of SEQ ID No. 1 (5′-[…]-3′), and pCDK5 shRNA #2 was characterized by having a polynucleotide having the nucleotide sequence of SEQ ID No. 2 (5′-[…]-3′). […] The results shown in FIGS. 8A to 8D were mean±S.D obtained by triplicate experiments.

TauC3 AD model mice = assay: Memory tests (Y-MAZE, novel object recognition, passive avoidance) in TauC3 AD model mice; type: in vivo, mouse; conditions: TauC3 mice one-month-old, icv injection 9 pg, after 17 days
Description: TauC3 mice, which were produced by the present inventor, are a tau Alzheimer's mouse model showing early memory defect by expressing tauC3 in a mouse brain, wherein the tauC3 has C-terminal of which 20 amino acids were eliminated by caspase-3 (see Korean Patent No. 1213325). […] After 17 days, memory was measured and compared by Y-MAZE (FIGS. 14A and 14B), novel object recognition (FIG. 14C) and passive avoidance test (FIG. 14D). Consequently, as shown in FIGS. 14A to 14D, memory of mock (a control) in TauC3 TG mice was remarkably declined while memory decline of the ALK inhibitor treating group was suppressed in all three types of behavior tests.

[5] = system: tau phosphorylation and signaling proteins in brain; assay: Western blot of brain tissue (hippocampus) of TauC3 mice after the behavior tests; type: in vivo, mouse
[6] = system: HT22/Tau #1 transformed cell line; assay: Neurite growth and cell viability in HT22/Tau #1 cells by fluorescence microscopy; type: cell-based, mouse; conditions: 25 μM pretreatment, 24 hours, neuronal cells expressing tau and ALK.Fc
Description: A HT22/Tau #1 transformed cell line was cotransfected with pGFP and pcDNA or pALK after pretreated with 25 μM of roscovitine. Thereafter, the resultant was cultured for 24 hours with/without doxycycline (Dox) treatment. Neurite growth and cell viability were measured through a fluorescence microscopy. Relative ratio of neurites was measured by the number of neuronal cells verses the length of neurites. Consequently, the reduction in neurite growth and the increase in cell death by ALK and tau in neuronal cells expressing tau and ALK.Fc were recovered through the CDK5 inhibitor, roscovitine, treatment (FIG. 9B).

## N#CC(=C(/N)Sc1ccccc1N)/C(C#N)=C(\N)Sc1ccccc1N [U0126]
HT22 cells
  ALK.Fc/Tau-mediated neurotoxicity (cell death): partially reduced
[1]
  ALK-mediated tau phosphorylation: significantly reduced

## COc1cc(N2CCC(N3CCN(C)CC3)CC2)ccc1Nc1ncc(Cl)c(Nc2ccccc2S(=O)(=O)C(C)C)n1 [NVP-TAE684]
HT22/Tau #1 cells
  cell death: 10%

## Cc1cc(O)c2c(c1)C(=O)c1cc(O)cc(O)c1C2=O [emodin]
[2]
  tau aggregation caused by ALK: inhibited
[3]
  PHF-1 expression (phosphorylated tau): decreasing
  tau-1 expression (unphosphorylated tau): increased
[4]
  IC50: 1 to 5 µM

## pCDK5 shRNA #1: CDK5 shRNA having the nucleotide sequence of SEQ ID No. 1 (5′-TGACCAAGCTGCCAGACTA-3′)
CDK5
  cell death induced by ALK/Tau: reduced

## C[C@@H](Oc1cc(-c2cnn(C3CCNCC3)c2)cnc1N)c1c(Cl)ccc(F)c1Cl [PF-2341066]
TauC3 AD model mice
  memory decline in all three types of behavior tests: suppressed
[5]; TauC3 mouse brain
  ERK1/2 activity in brain: reduced
[5]; TauC3 mouse brain (hippocampus)
  phosphorylation of tau in brain (PHF1, pT231, CP13, 12E8): significantly inhibited

## pCDK5 shRNA #2: CDK5 shRNA having the nucleotide sequence of SEQ ID No. 2 (5′-ACTCCACGTCCATCGACAT-3′)
CDK5
  cell death induced by ALK/Tau: reduced

## [Cl-].[Li+] [LiCl]
[1]; both cells expressing pGFP-tau alone and coexpressing pGFP-tau and pALK.Fc, inhibition levels very similar
  tau phosphorylation: inhibited

## CC[C@H](CO)Nc1nc(NCc2ccccc2)c2ncn(C(C)C)c2n1 [roscovitine]
HT22 cells
  ALK.Fc/Tau-mediated neurotoxicity (cell death): significantly reduced
[6]
  increase in cell death by ALK and tau: recovered
  reduction in neurite growth by ALK and tau: recovered
[1]
  ALK-mediated tau phosphorylation: significantly reduced
